This is an account of results in publication PMC7397269, “Synthesis and Evaluation of New Coumarin Derivatives as Antioxidant, Antimicrobial, and Anti-Inflammatory Agents” (Molecules, 2020).

What all share (type): cell-based
Assay [1] deals with Bacillus subtilis ATCC 6633. Put plainly: Agar well diffusion, B. subtilis. The conditions noted are these: ATCC6633, 100 μL of 10 mg/mL in DMSO, read-out: diameter of inhibition zone, BS. The source says: (§1) The new molecules were individually tested for their antimicrobial activity in vitro against standard bacteria strains from the American Type Culture Collection (ATCC), namely, Staphylococcus aureus ATCC 29213, Bacillus subtilis ATCC 6633, Bacillus megaterium ATCC 9885 (Gram-positive), Escherichia coli ATCC 2592, and Pseudomonas aeruginosa ATCC 27,953 (Gram-negative). The compounds were also microbiologically tested against locally isolated Saccharomyces cerevisiae (yeast) and the standard Agricultural Research Service Culture Collection (NRRL) strain of the yeast-like pathogenic fungus Candida albicans NRRL Y-477. Primary screening was conducted using the agar well diffusion method using nutrient agar (NA) medium and Sabourand dextrose agar (SDA) medium for the tested pathological bacteria and yeast, respectively. […].
(§2) Antimicrobial tests were conducted via the agar well diffusion method using 100 μL of suspension containing 1 × 10^8 CFU/mL pathological tested bacteria and 1 × 10^6 CFU/mL yeast spread on NA and SDA, respectively. After the media cooled and solidified, wells (10 mm in diameter) were made in the solidified agar and loaded with 100 μL of the tested compound solution prepared by dissolving 10 mg of the chemical compound in 1 mL dimethyl sulfoxide (DMSO). The inoculated plates were then incubated for 24 h at 37 °C for bacteria and yeast growth. DMSO served as negative control. Ciprofloxacin (10 mg/mL) and ketoconazole (10 mg/mL) were used as standards for antibacterial and antifungal activity, respectively. After incubation, antimicrobial activity was evaluated by measuring the zone of inhibition against the test organisms and compared with that of the standard. Antimicrobial activities were expressed as the diameter of the inhibition zone (IZ) in mm. The experiment was carried out in triplicate and the average zone of inhibition was calculated.

The subject of assay [2] is Candida albicans NRRL Y-477. Put plainly: MIC, two-fold serial dilution, C. albicans. The settings on record: NRRLY477, read-out: Minimum inhibitory concentration, CA.
Excerpt: as §1
(§3) The bacteriostatic activity of the active compounds (having IZ > 16 mm) was then evaluated using the two-fold serial dilution technique. Two-fold serial dilutions of the tested compounds solutions were prepared using the proper nutrient broth to reach final concentrations of 1000, 500, 250, and 125 μg/mL. The tubes were then inoculated with the test microorganisms grown in their suitable broth at 37 °C for 24 h (1 × 10^8 CFU/mL for bacteria and 1 × 10^6 CFU/mL of yeast), 0.1 mL of the above inoculum was administered per 5 mL, and the tubes were incubated at 37 °C for 24 h. The lowest concentration showing no growth was taken as the MIC.

The subject of assay [3] is Staphylococcus aureus ATCC 29213. Put plainly: Agar well diffusion, S. aureus. The conditions noted are these: ATCC29213, 100 μL of 10 mg/mL in DMSO, read-out: diameter of inhibition zone, SA.
Excerpt: as §1, §2

For assay [4], the system named is Pseudomonas aeruginosa ATCC 27,953. Put plainly: Agar well diffusion, P. aeruginosa. The settings on record: ATCC27, 100 μL of 10 mg/mL in DMSO, read-out: diameter of inhibition zone, PA.
Excerpt: as §1, §2

For assay [5], the system named is Candida albicans NRRL Y-477. Put plainly: Agar well diffusion, C. albicans. The settings on record: NRRLY477, 100 μL of 10 mg/mL in DMSO, read-out: diameter of inhibition zone, CA.
Excerpt: as §1, §2

The test system of assay [6] is Escherichia coli ATCC 2592. Put plainly: Agar well diffusion, E. coli. The conditions noted are these: ATCC2592, 100 μL of 10 mg/mL in DMSO, read-out: diameter of inhibition zone, EC.
Excerpt: as §1, §2

Assay [7] has as its system Saccharomyces cerevisiae local isolate. Put plainly: MIC, two-fold serial dilution, S. cerevisiae. The settings on record: two-fold serial dilution, S. cerevisiae, read-out: Minimum inhibitory concentration, SC.
Excerpt: as §1, §3

Assay [8] shares this test system. Put plainly: Agar well diffusion, S. cerevisiae. The conditions noted are these: well diffusion, 100 μL of 10 mg/mL in DMSO, S. cerevisiae, read-out: diameter of inhibition zone, SC.
Excerpt: as §1, §2

Assay [9] relates to Bacillus megaterium ATCC 9885. Put plainly: Agar well diffusion, B. megaterium. The conditions noted are these: Priestia megaterium, ATCC9885, 100 μL of 10 mg/mL in DMSO, read-out: diameter of inhibition zone, BM.
Excerpt: as §1, §2

≈ marks a conversion by molar mass, not a printed value. Some results are limits rather than exact numbers.

`CC(=O)N1CCN(c2ccc(OCC3COC(Cn4ccnc4)(c4ccc(Cl)cc4Cl)O3)cc2)CC1` (stereo not drawn) [Ketoconazole, reference compound]: the zone of inhibition at 10000 µg/mL in assay [1] was below 15 mm; in assay [3], below 15 mm; in assay [4], below 15 mm; in assay [5], 28 mm; in [6], below 15 mm; in assay [8] it was 30 mm. Moreover, in assay [9], the zone of inhibition at 10000 µg/mL was below 15 mm. In addition, the MIC in assay [2] and in assay [7] was 125 µg/mL (≈ 235 µM) each time.
